Entries after “also recorded” stand apart in the source; their conditions may differ.
Test system: PDF receptor Er-PDFR of E. rowelli
Assay: BRET assay: cAMP response (Epac-L sensor) of HEK293T cells transfected with Er-PDFR
Format: cell-based, Euperipatoides rowelli
Settings: for activation of Er-PDFR (cAMP response) / potency of PDF-II relative to PDF-I as activating ligand: HEK293T, Epac-L BRET, n = 8; for activation of Er-PDFR (cAMP response): Rm-MIP7 as control (unrelated peptide); for potency of PDF-II relative to PDF-I as activating ligand: comparison of activation by the two peptides
Method: HEK293T cells were seeded on 96-well Nunc plates (Thermo Fisher Scientific, Waltham, MA, USA) at a density of 2 ×10^4 cells/well and cultured in DMEM high glucose (Sigma-Aldrich Chemie GmbH, Munich, Germany) supplemented with 10% fetal bovine serum and 5% CO2 at 37°C. After 24 h, cells were transfected using polyethyleneimine (25 kDa PEI, linear; Polysciences Europe GmbH, Hirschberg an der Bergstrasse, Germany) with GFP2-hEpac1E157-P881-Rluc8 [Epac-L; modified from ([83]–[85])] and pcDNA3.1-ErPDFR-3K10 in a 1:1 ratio (100 ng total DNA/well). Cells were washed with HBSS (Thermo Fisher Scientific) 2 days after transfection and stimulated with different concentrations of synthetic PDF peptides (10^−11 to 10^−5 M final concentration) together with the substrate coelenterazine 400A (“DeepBlueC”; BIOTREND Chemikalien GmbH, Cologne, Germany) at a final concentration of 5 μM in a total volume of 50 μL HBSS. Control experiments were conducted with cells expressing Epac-L alone, stimulation without PDF peptides, stimulation using an unrelated peptide (myoinhibitory peptide 7 from the cockroach Rhyparobia maderae), and stimulation with forskolin (50 μM final concentration; Sigma-Aldrich Chemie GmbH) + IBMX (100 μM final concentration; Sigma-Aldrich Chemie GmbH), respectively. The raw luminescence was measured immediately after stimulation at wavelengths of 410 ± 80 nm for the donor and 515 ± 30 nm for the acceptor in eight biological replicates for each tested PDF peptide concentration (n = 8) using a POLARstar Omega microplate reader (BMG Labtech, Cary, NC, USA). Their ratios [emission (410 nm)/emission (515 nm)] were box plotted as relative luminescence against the respective PDF concentration in dose response curves.

Substance | activation threshold (minimum concentration required for PDFR stimulation) (HEK293T cells co-transfected with Epac-L and pcDNA3.1-ErPDFR-3K10 (1:1), peptide 10^−11 to 10^−5 M, coelenterazine 400A 5 μM in HBSS, emission 410/515 nm read immediately after stimulation, n = 8 biological replicates) | activation of Er-PDFR (cAMP response) (peptide 10^−11 to 10^−5 M) | potency of PDF-II relative to PDF-I as activating ligand | potency of PDF-II relative to PDF-I as activating ligand (listed as PDF-II)
CNAELINSLLGLPKMMNDA-NH2 [Er-PDF-I, HPLC-purified synthetic pigment-dispersing factor peptide I of Euperipatoides rowelli] | 10^−6 M | activated by both PDF peptides of E. rowelli, Er-PDF-I and Er-PDF-II, in a dose-dependent manner; also recorded: activated by Er-PDF-I and Er-PDF-II in a distinct and dose-dependent manner |  | 
CNAELINSLLNLPQKLQEA-NH2 [Er-PDF-II, HPLC-purified synthetic pigment-dispersing factor peptide II of Euperipatoides rowelli] |  | activated by both PDF peptides of E. rowelli, Er-PDF-I and Er-PDF-II, in a dose-dependent manner; also recorded: activated by Er-PDF-I and Er-PDF-II in a distinct and dose-dependent manner | one order of magnitude more potent than Er-PDF-I | tenfold higher potency than PDF-I

From publication PMC7235175, “Analysis of Pigment-Dispersing Factor Neuropeptides and Their Receptor in a Velvet Worm” (Frontiers in Endocrinology, 2020)
